According to PubChem BioAssay AID434975 (The Scripps Research Institute Molecular Screening Center, 2010):
Activity calls are given as the source filed them.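 The calls were made as follows: active = inhibition zone diameter above 0 mm; inactive = zone diameter of 0 mm or less.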

Test system: Candida albicans ATCC 90028, disc diffusion zone, 24 h
Assay: Candida albicans growth inhibition, late-stage follow-up, TPT1 inhibitor project, disc diffusion, zone diameter (AID 434975)
Settings: at 10 mM; hits give high values

| SMILES | inhibition zone diameter |
| --- | --- |
| OC(Cn1cncn1)(Cn1cncn1)c1ccc(F)cc1F | 38 mm |
| NC(=O)c1cc[n+](CC2=C(C(=O)O)N3C(=O)[C@@H](NC(=O)C(c4ccccc4)S(=O)(=O)O)[C@H]3SC2)cc1 (stereo partly drawn) | 0 mm (inactive) |
| Cc1ccccc1N1C(=O)/C(=C/c2ccco2)C(=O)NC1=S | 0 mm (inactive) |
| CC1=C(C#N)C(=O)N(C2CCS(=O)(=O)C2)C(=O)/C1=C\c1ccco1 (stereo not drawn) | 0 mm (inactive) |
| Cc1cc(C)n(Cc2ccc(C(=O)NN=Cc3ccc(-c4ccc([N+](=O)[O-])cc4)o3)o2)n1 | 0 mm (inactive) |
| COc1ccc(OC)c(N2C(=O)/C(=C/c3ccco3)C(=O)NC2=S)c1 | 0 mm (inactive) |
| Cc1ccc(N2C(=O)NC(=O)/C(=C\c3ccc([N+](=O)[O-])o3)C2=O)cc1 | 12.6 mm |
| O=c1oc2c(O)c(O)cc3c(=O)oc4c(O)c(O)cc1c4c23 | 0 mm (inactive) |
